Laboratory results: PubChem BioAssay AID2060357 (Molecular Pharmacology Branch, DTP, NCI, 2025)
“And” between values parts separate entries of the source, which are not always exact repeats. Equal values may be shown once.

Tested on: 292921-168-R-J2-PDC spheroids with HUVEC/MSC, viability
Test: Anticancer human tumor 292921-168-R-J2-PDC patient-derived pancreatic carcinoma cell line growth inhibition [TAK]
Conditions: for viability, T/C: stronger effect = lower value
Source text: Combinatorial screen of targeted agents with TAK-243 and ipatasertib in multi-cell type tumor spheroids
A high-throughput screen of multi-cell type tumor spheroids was designed to identify active combinations of targeted small molecules and TAK-243 or ipatasertib. Complex spheroids include a stromal component modeled by human endothelial cells (HUVEC) and fibroblasts modeled by human mesenchymal stem cells (MSCs). The concentration ranges selected for each drug and investigational agent were based upon clinically achievable concentrations if the clinical Cmax of the agent was known.
Compounds. The drugs and investigational agents: TAK-243 (785004), ipatasertib (767898), everolimus (733504), selumetinib (741078), bortezomib (756655), trametinib (758246), ixazomib (758254), vemurafenib (761431), dabrafenib (764134), sapanisertib (764658), alpelisib (765974), and copanlisib (816437), were obtained from the National Cancer Institute (NCI) Developmental Therapeutics Program Chemical Repository. The FDA-approved anticancer drug set is available from the NCI Developmental Therapeutics Program. […] The stock solutions were prepared in dimethyl sulfoxide (DMSO, Sigma-Aldrich, St. Louis, MO, cat. D2650) at 800-fold the tested concentration and stored at -70 degrees C prior to their use. All drugs and investigational agents were tested over a range starting from a high concentration at or near the clinical Cmax and decreasing in half-log increments. If the clinical Cmax for an agent had not been determined, the highest concentration tested was 10 microM.
NCI60 Cell Culture. NCI60 cell lines were obtained from the NCI Developmental Therapeutics Program Tumor Repository. For each lot of cells, the Repository performed Applied Biosystems AmpFLSTR Identifiler testing with PCR amplification to confirm consistency with the published Identifier STR profile for each cell line. Cells were kept in continuous culture for no more than 20 passages. The optimal seeding densities for each of the cell lines at each time point assessed were determined prior to performing the concentration response studies. Briefly, the NCI60 human tumor lines were grown as monolayers in RPMI 1640 medium supplemented with 10% FBS and 2 mmol/L L-glutamine.
An additional 2 lines were from the NCI60 cell line panel including melanomas, MALME-3M and SK-MEL-2. Pooled donor human umbilical vein endothelial cells (HUVEC, Lonza, cat. CC-2519) and human mesenchymal stem cells (hMSC, Lonza, cat. PT-2501) were purchased from Lonza (Walkersville, MD).
PDMR cell lines were grown in complete medium (DC medium): Dulbecco's modified Eagle's medium (DMEM)/F12 supplemented with 5% fetal bovine serum (FBS), 2 mM L-glutamine, 100 U/mL penicillin and 100 µg/ml streptomycin, 0.4 µg/ml hydrocortisone, 10 ng/ml epidermal growth factor (EGF) recombinant human protein, 24 µg/mL adenine, and 0.1 mg/mL primocin. During culture from frozen stock vials, PDMR cells were cultured in the same medium containing 10 µM Y-27632 (see Table 3). The PDCs were cultured in complete DMEM/F12 media without 10 microM Y-27632 dihydrochloride for at least two passages prior to the screen. The pooled donor HUVEC and hMSC were cultured in endothelial cell growth medium 2 (PromoCell, Heidelberg, Germany, cat. C-22011) and mesenchymal stem cell growth medium 2 (PromoCell, cat. C-28009), respectively. For all experiments, HUVEC and hMSC were used at passages </=5.
For the pre-screen, cell seeding densities were determined from a titration spanning the range from 5,000 to 313 cells per well. The mct-spheroids including 60% malignant cells, 25% HUVEC and 15% MSC dispensed as a mixture into U-bottom Ultra-Low Attachment 384-well plates (Corning, NY)
High-throughput Drug Combination Screening.
Prior to their inoculation into 384-well plates, malignant cells, HUVEC, and hMSC were removed from T flasks using TrypLE express (Thermo Fisher Scientific, cat. 12605036) and harvested by centrifugation for 5 min at 233 x g. […]
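Further: spheroids exposed to drugs for seven days before readout.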

`CC(=O)Nc1cccc(-n2c(=O)n(C3CC3)c(=O)c3c(Nc4ccc(I)cc4F)n(C)c(=O)c(C)c32)c1` + CC(C)NCC(C(=O)N1CCN(c2ncnc3c2C(C)CC3O)CC1)c1ccc(Cl)cc1 was tested. Which IC50 (curve of first compound, second compound 0.3 µM) did it give?
The IC50 was 0.45 nM.

And the IC50 (curve of first compound, second compound 0.949 µM)?
Its IC50 is 0.337 nM.

And the IC50 (curve of first compound, second compound 3 µM)?
The IC50 was 0.209 nM.

And the IC50 (curve of first compound, second compound 9.49 µM)?
The IC50 was 0.11 nM.

What about the IC50 (curve of first compound, second compound 30 µM) of the same compound?
The IC50 was less than 0.0949 nM.

What about the viability, T/C (second compound 0.3 µM, first compound 94.9 pM) of the same compound?
The viability, T/C was 74.9%.

What about the viability, T/C (second compound 0.3 µM, first compound 0.0003 µM) of the same compound?
The viability, T/C was 59.5%.

What about the viability, T/C (second compound 0.3 µM, first compound 0.000949 µM) of the same compound?
The viability, T/C was 32.6%.

What about the viability, T/C (second compound 0.3 µM, first compound 0.003 µM) of the same compound?
Its viability, T/C is 25.7%.

And the viability, T/C (second compound 0.3 µM, first compound 0.00949 µM)?
Its viability, T/C is 19.8%.

And the viability, T/C (second compound 0.3 µM, first compound 0.03 µM)?
The viability, T/C was 13.9%.

What about the viability, T/C (second compound 0.949 µM, first compound 94.9 pM) of the same compound?
The viability, T/C was 70.5%.

What about the viability, T/C (second compound 0.949 µM, first compound 0.0003 µM) of the same compound?
The viability, T/C was 51.8%.

What about the viability, T/C (second compound 0.949 µM, first compound 0.000949 µM) of the same compound?
The viability, T/C was 35.6%.

And the viability, T/C (second compound 0.949 µM, first compound 0.003 µM)?
Its viability, T/C is 26.6%.

What about the viability, T/C (second compound 0.949 µM, first compound 0.00949 µM) of the same compound?
Its viability, T/C is 17.8%.

And the viability, T/C (second compound 0.949 µM, first compound 0.03 µM)?
Its viability, T/C is 13.1%.

And the viability, T/C (second compound 3 µM, first compound 94.9 pM)?
The viability, T/C was 63.8%.

What about the viability, T/C (second compound 3 µM, first compound 0.0003 µM) of the same compound?
Its viability, T/C is 44%.

And the viability, T/C (second compound 3 µM, first compound 0.000949 µM)?
The viability, T/C was 28.8%.

What about the viability, T/C (second compound 3 µM, first compound 0.003 µM) of the same compound?
Its viability, T/C is 22.5%.

And the viability, T/C (second compound 3 µM, first compound 0.00949 µM)?
Its viability, T/C is 16.6%.

What about the viability, T/C (second compound 3 µM, first compound 0.03 µM) of the same compound?
Its viability, T/C is 12.3%.

And the viability, T/C (second compound 9.49 µM, first compound 94.9 pM)?
The viability, T/C was 51.4%.

What about the viability, T/C (second compound 9.49 µM, first compound 0.0003 µM) of the same compound?
Its viability, T/C is 39%.

What about the viability, T/C (second compound 9.49 µM, first compound 0.000949 µM) of the same compound?
The viability, T/C was 25.4%.

What about the viability, T/C (second compound 9.49 µM, first compound 0.003 µM) of the same compound?
The viability, T/C was 18.8%.

And the viability, T/C (second compound 9.49 µM, first compound 0.00949 µM)?
Its viability, T/C is 14.3%.

What about the viability, T/C (second compound 9.49 µM, first compound 0.03 µM) of the same compound?
The viability, T/C was 10.7%.

What about the viability, T/C (second compound 30 µM, first compound 94.9 pM) of the same compound?
Its viability, T/C is 34.9%.

What about the viability, T/C (second compound 30 µM, first compound 0.0003 µM) of the same compound?
Its viability, T/C is 26.6%.

What about the viability, T/C (second compound 30 µM, first compound 0.000949 µM) of the same compound?
Its viability, T/C is 20.3%.

What about the viability, T/C (second compound 30 µM, first compound 0.003 µM) of the same compound?
Its viability, T/C is 16%.

What about the viability, T/C (second compound 30 µM, first compound 0.00949 µM) of the same compound?
Its viability, T/C is 12.2%.

What about the viability, T/C (second compound 30 µM, first compound 0.03 µM) of the same compound?
Its viability, T/C is 9.91%.

For `COC1CC2CCC(C)C(O)(O2)C(=O)C(=O)N2CCCCC2C(=O)OC(C(C)CC2CCC(OCCO)C(OC)C2)CC(=O)C(C)C=C(C)C(O)C(OC)C(=O)C(C)CC(C)C=CC=CC=C1C` (configuration not stated), which viability, T/C (compound 0.000316 µM) is on record?
The viability, T/C was 83.9% and 83.3%.

What about the viability, T/C (compound 0.001 µM) of the same compound?
Its viability, T/C is 76.6% and 71.4%.

What about the viability, T/C (compound 0.00316 µM) of the same compound?
The viability, T/C was 71.5% and 66.5%.

What about the viability, T/C (compound 0.01 µM) of the same compound?
Its viability, T/C is 64.1% and 59%.

And the viability, T/C (compound 0.0316 µM)?
Its viability, T/C is 59.8% and 64.2%.

And the viability, T/C (compound 0.1 µM)?
Its viability, T/C is 59.2% and 62.3%.

What about the IC50 (curve of compound) of the same compound?
Its IC50 is greater than 100 nM.
